The NIST ThermoML archive (doi:10.1016/j.jct.2016.03.026)
“And” between values parts separate entries of the source, which are not always exact repeats. Equal values may be shown once.

Assay: xn = mol fraction of the nth substance listed
Conditions: Fluid (supercritical or subcritical phases); for speed of sound: Frequency=5 MHz, Pulse-echo method, x1 = 0.925; for mass density: 263.15 K, Vibrating tube method, x1 = 0.97

O=C=O [carbon dioxide] + CO
speed of sound
Conditions | 263.13 K | 263.14 K
7970 kPa | 694.6 m/s and 693.1 m/s | 694.8 m/s and 695.2 m/s
9960 kPa | – | 715.4 m/s
9990 kPa | 715.1 m/s | –
10000 kPa | 714.3 m/s | –
10020 kPa | – | 715.9 m/s
14940 kPa | 760.5 m/s | –
14950 kPa | – | 760.8 m/s
14960 kPa | 759.3 m/s | –
14990 kPa | – | 761 m/s
19990 kPa | 799.6 m/s | 801 m/s
20000 kPa | 800.7 m/s | –
20020 kPa | – | 800.7 m/s
24970 kPa | 836 m/s | 836.4 m/s
24980 kPa | 835.1 m/s | –
24990 kPa | – | 836.3 m/s
29960 kPa | 867.4 m/s | 868.8 m/s
29990 kPa | 868.4 m/s | –
30000 kPa | – | 868.9 m/s
34950 kPa | – | 898.5 m/s
34980 kPa | – | 898.5 m/s
34990 kPa | 898.5 m/s | –
35000 kPa | 897.7 m/s | –
39950 kPa | 926.1 m/s | –
39970 kPa | 925.5 m/s | –
39990 kPa | – | 926.5 m/s and 926.8 m/s
44970 kPa | 952.1 m/s | –
44980 kPa | 951.6 m/s | –
45030 kPa | – | 952.7 m/s
45040 kPa | – | 952.8 m/s
49950 kPa | – | 977.1 m/s
49960 kPa | – | 977.1 m/s
49970 kPa | 977 m/s and 976.2 m/s | –
54950 kPa | 999.5 m/s | –
54980 kPa | – | 1000.5 m/s
54990 kPa | 1000.3 m/s | –
55010 kPa | – | 1000.5 m/s
59950 kPa | 1021.6 m/s | 1022.5 m/s
59970 kPa | – | 1022.9 m/s
59990 kPa | 1022.6 m/s | –
64970 kPa | – | 1043.9 m/s and 1044.2 m/s
64980 kPa | 1043.7 m/s | –
65000 kPa | 1043 m/s | –
69950 kPa | – | 1064.3 m/s
69960 kPa | 1063.9 m/s | –
69990 kPa | – | 1064.1 m/s
70000 kPa | 1063.4 m/s | –
74960 kPa | 1083.5 m/s and 1082.7 m/s | –
74970 kPa | – | 1083.7 m/s
74990 kPa | – | 1084.1 m/s
79980 kPa | 1101.6 m/s | –
79990 kPa | – | 1102.8 m/s
80000 kPa | 1102.6 m/s | 1102.8 m/s
89950 kPa | – | 1138.4 m/s
89990 kPa | 1137.3 m/s | –
90000 kPa | 1138.2 m/s | –
90020 kPa | – | 1138.8 m/s
99980 kPa | – | 1172.1 m/s
99990 kPa | 1171.5 m/s | –
100000 kPa | 1170.8 m/s | 1171.8 m/s
109970 kPa | 1202.4 m/s | –
109980 kPa | 1203.2 m/s | 1203.3 m/s
110000 kPa | – | 1203.8 m/s
119950 kPa | 1232.3 m/s | –
119980 kPa | 1233.2 m/s | 1233.5 m/s
120000 kPa | – | 1233.4 m/s
129980 kPa | 1261.7 m/s | –
129990 kPa | 1260.9 m/s | –
130000 kPa | – | 1262 m/s
130010 kPa | – | 1262.1 m/s
139970 kPa | 1288.8 m/s | –
139980 kPa | 1288.1 m/s | 1289.1 m/s
140010 kPa | – | 1289.5 m/s
149950 kPa | 1315 m/s | 1315.1 m/s
149970 kPa | 1314.1 m/s | –
150000 kPa | – | 1315.4 m/s
159950 kPa | – | 1340.4 m/s
159960 kPa | – | 1340.2 m/s
159970 kPa | 1340 m/s | –
159980 kPa | 1339.2 m/s | –
169960 kPa | – | 1364.5 m/s
169980 kPa | – | 1364.2 m/s
170010 kPa | 1364.1 m/s | –
170040 kPa | 1363.4 m/s | –
179970 kPa | – | 1388 m/s
179990 kPa | – | 1387.5 m/s
180000 kPa | 1386.5 m/s | –
180020 kPa | 1387.5 m/s | –
190000 kPa | 1409.9 m/s | 1410.3 m/s
190010 kPa | 1409 m/s | –
190020 kPa | – | 1409.9 m/s

Conditions | mass density [kg/m3]
4000 kPa | 989.7
4025 kPa | 990.23
4050 kPa | 990.17
4075 kPa | 990.12
4100 kPa | 990.09
4125 kPa | 990.27
4150 kPa | 990.42
4175 kPa | 990.57
4200 kPa | 990.66
4225 kPa | 990.83
4250 kPa | 990.91
4275 kPa | 991.06
4300 kPa | 991.18
4325 kPa | 991.32
4350 kPa | 991.48
4375 kPa | 991.65
4400 kPa | 991.73
4425 kPa | 991.89
4450 kPa | 992.03
4475 kPa | 992.14
4500 kPa | 992.26
4525 kPa | 992.39
4550 kPa | 992.55
4575 kPa | 992.63
4600 kPa | 992.8
4625 kPa | 992.88
4650 kPa | 993.04
4675 kPa | 993.21
4700 kPa | 993.29
4725 kPa | 993.45
4750 kPa | 993.53
4775 kPa | 993.7
4800 kPa | 993.78
4825 kPa | 993.94
4850 kPa | 994.11
4875 kPa | 994.19
4900 kPa | 994.35
4925 kPa | 994.43
4950 kPa | 994.6
4975 kPa | 994.76
5000 kPa | 994.84
5025 kPa | 995.01
5050 kPa | 995.09
5075 kPa | 995.25
5100 kPa | 995.34
5125 kPa | 995.5
5150 kPa | 995.58
5175 kPa | 995.74
5200 kPa | 995.91
5225 kPa | 995.99
5250 kPa | 996.15
5275 kPa | 996.24
5300 kPa | 996.4
5325 kPa | 996.48
5350 kPa | 996.65
5375 kPa | 996.73
5400 kPa | 996.89
5425 kPa | 996.97
5450 kPa | 997.14
5475 kPa | 997.22
5500 kPa | 997.38
5525 kPa | 997.46
5550 kPa | 997.63
5575 kPa | 997.71
5600 kPa | 997.87
5625 kPa | 997.96
5650 kPa | 998.12
5675 kPa | 998.2
5700 kPa | 998.37
5725 kPa | 998.52
5750 kPa | 998.61
5775 kPa | 998.69
5800 kPa | 998.86
5825 kPa | 998.94
5850 kPa | 999.1
5875 kPa | 999.18
5900 kPa | 999.35
5925 kPa | 999.43
5950 kPa | 999.59
5975 kPa | 999.68
6000 kPa | 999.84
6025 kPa | 999.92
6050 kPa | 1000.09
6075 kPa | 1000.17
6100 kPa | 1000.33
6125 kPa | 1000.41
6150 kPa | 1000.58
6175 kPa | 1000.66
6200 kPa | 1000.79
6225 kPa | 1000.9
6250 kPa | 1000.98
6275 kPa | 1001.15
6300 kPa | 1001.23
6325 kPa | 1001.39
6350 kPa | 1001.48
6375 kPa | 1001.64
6400 kPa | 1001.72
6425 kPa | 1001.82
6450 kPa | 1001.97
6475 kPa | 1002.05
6500 kPa | 1002.21
6525 kPa | 1002.29
6550 kPa | 1002.46
6575 kPa | 1002.54
6600 kPa | 1002.7
6625 kPa | 1002.79
6650 kPa | 1002.95
6675 kPa | 1003.03
6700 kPa | 1003.2
6725 kPa | 1003.28
6750 kPa | 1003.36
6775 kPa | 1003.52
6800 kPa | 1003.6
6825 kPa | 1003.77
6850 kPa | 1003.85
6875 kPa | 1004.01
6900 kPa | 1004.09
6925 kPa | 1004.25
6950 kPa | 1004.34
6975 kPa | 1004.42
7000 kPa | 1004.59
7025 kPa | 1004.67
7050 kPa | 1004.82
7075 kPa | 1004.91
7100 kPa | 1004.99
7125 kPa | 1005.16
7150 kPa | 1005.24
7175 kPa | 1005.38
7200 kPa | 1005.49
7225 kPa | 1005.57
7250 kPa | 1005.73
7275 kPa | 1005.81
7300 kPa | 1005.9
7325 kPa | 1006.06
7350 kPa | 1006.14
7375 kPa | 1006.29
7400 kPa | 1006.39
7425 kPa | 1006.47
7450 kPa | 1006.63
7475 kPa | 1006.71
7500 kPa | 1006.79
